Experimental data from ChEMBL document CHEMBL5724696, “Autophagy assay results for EUbOPEN Chemogenomics Library” (2024).
“And” between values parts separate entries of the source, which are not always exact repeats. Equal values may be shown once.

Columns and labels:
Assay type in all cases: functional, Homo sapiens
U2OS [1] = experiment: (§1) Here: values are normalized to the negative (DMSO; defined as 0% autophagy induction) and positive (250nM Torin1; mTOR inhibitor; defined as maximal inducer of autophagy = 100%) control compounds and represented as % of autophagy induction. […] The impact of autophagy induction on cells is complex and depends on the affected target. As such, the magnitude of a phenotype may not be equally mirrored in the %-value of autophagy induction and vice versa. The dynamics of the induction may indicate the mode of activation: e.g. activation via phosphorylation or a signaling cascade may occur fast, while activation via transcription factors may take considerably longer. […] Of note, treatment concentrations may be sub-optimal for specific compounds, leading to false negative annotations.; conditions: Culturing Media DMEM, 1 % Penicillin/Streptomycin, 10% Fetal bovin serum Add-On: No, Screening Media Control DMEM, Screening Media Samples DMEM
U2OS [2] = experiment: as §1; conditions: Culturing Media DMEM, 1 % Penicillin/Streptomycin, 10% Fetal bovin serum Add-On: No, Screening Media Control DMEM, Screening Media Samples DMEM; remark: listed apart in the source
TERT-RPE1 = experiment: as §1; conditions: Culturing Media DMEM/F12 (1:1), 1 % Penicillin/Streptomycin, 10% Fetal bovin serum Add-On: No, Screening Media Control DMEM/F12 (1:1), Screening Media Samples DMEM/F12 (1:1)
[3] = Compound Concentration 0.5 uM, Timepoint 12 hours
[4] = Compound Concentration 0.5 uM, Timepoint 24 hours
[5] = Compound Concentration 0.5 uM, Timepoint 36 hours
[6] = Compound Concentration 0.5 uM, Timepoint 60 hours
[7] = Compound Concentration 2 uM, Timepoint 12 hours
[8] = Compound Concentration 2 uM, Timepoint 24 hours
[9] = Compound Concentration 2 uM, Timepoint 36 hours
[10] = Compound Concentration 2 uM, Timepoint 60 hours
[11] = Compound Concentration 10 uM, Timepoint 12 hours
[12] = Compound Concentration 10 uM, Timepoint 24 hours
[13] = Compound Concentration 10 uM, Timepoint 36 hours
[14] = Compound Concentration 10 uM, Timepoint 60 hours
[15] = Compound Concentration 0.5 uM, Timepoint 12 hours, 12 h, 0.5 µM
[16] = Compound Concentration 0.5 uM, Timepoint 24 hours, 24 h, 0.5 µM
[17] = Compound Concentration 0.5 uM, Timepoint 36 hours, 36 h, 0.5 µM
[18] = Compound Concentration 0.5 uM, Timepoint 60 hours, 60 h, 0.5 µM
[19] = Compound Concentration 2 uM, Timepoint 12 hours, 12 h, 2 µM
[20] = Compound Concentration 2 uM, Timepoint 24 hours, 24 h, 2 µM
[21] = Compound Concentration 2 uM, Timepoint 36 hours, 36 h, 2 µM
[22] = Compound Concentration 2 uM, Timepoint 60 hours, 60 h, 2 µM
[23] = Compound Concentration 10 uM, Timepoint 12 hours, 12 h, 10 µM
[24] = Compound Concentration 10 uM, Timepoint 24 hours, 24 h, 10 µM
[25] = Compound Concentration 10 uM, Timepoint 36 hours, 36 h, 10 µM
[26] = Compound Concentration 10 uM, Timepoint 60 hours, 60 h, 10 µM

Compound | autophagy induction (U2OS [1]; [3]) [%] | autophagy induction (U2OS [1]; [4]) [%] | autophagy induction (U2OS [1]; [5]) [%] | autophagy induction (U2OS [1]; [6]) [%] | autophagy induction (U2OS [1]; [7]) [%] | autophagy induction (U2OS [1]; [8]) [%] | autophagy induction (U2OS [1]; [9]) [%] | autophagy induction (U2OS [1]; [10]) [%] | autophagy induction (U2OS [1]; [11]) [%] | autophagy induction (U2OS [1]; [12]) [%] | autophagy induction (U2OS [1]; [13]) [%] | autophagy induction (U2OS [1]; [14]) [%] | autophagy induction (U2OS [2]; [3]) [%] | autophagy induction (U2OS [2]; [4]) [%] | autophagy induction (U2OS [2]; [5]) [%] | autophagy induction (U2OS [2]; [6]) [%] | autophagy induction (U2OS [2]; [7]) [%] | autophagy induction (U2OS [2]; [8]) [%] | autophagy induction (U2OS [2]; [9]) [%] | autophagy induction (U2OS [2]; [10]) [%] | other results
Cl.Clc1cccc(COc2cncc(N3CCNCC3)n2)c1 | -8.837 | -13.8803 | -7.736 | -11.4823 | 2.897 | 5.801 | -1.494 | -5.088 | 27.4058 | 16.7462 | 7.428 | 3.616 | 7.085 | -1.5773 | -58.983 | -0.334 | 2.459 | 2.019 | -56.8827 | 0.5358 | autophagy induction (U2OS [2]; [11]): -3.089%; autophagy induction (U2OS [2]; [12]): 5.923%; autophagy induction (U2OS [2]; [13]): -56.0685%; autophagy induction (U2OS [2]; [14]): -1.858%; autophagy induction (TERT-RPE1; [15]): -4.107% and -8.741%; autophagy induction (TERT-RPE1; [16]): -3.275% and -10.2873%; autophagy induction (TERT-RPE1; [17]): -5.346% and -10.5791%; autophagy induction (TERT-RPE1; [18]): -7.219% and -10.0498%; autophagy induction (TERT-RPE1; [19]): 0.7021% and -1.765%; autophagy induction (TERT-RPE1; [20]): 0.6926% and -5.584%; autophagy induction (TERT-RPE1; [21]): 0.3671% and -11.5088%; autophagy induction (TERT-RPE1; [22]): -2.572% and -13.6901%; autophagy induction (TERT-RPE1; [23]): 10.122% and -0.2214%; autophagy induction (TERT-RPE1; [24]): 9.832% and 0.1054%; autophagy induction (TERT-RPE1; [25]): 9.982% and -0.986%; autophagy induction (TERT-RPE1; [26]): 11.761% and 2.73%
C[C@@H](NCCc1ccc(O)cc1)[C@@H](O)c1ccc(O)cc1.Cl (relative stereo) | 14.7038 | 0.5598 | 0.6043 | -0.5871 | 18.1678 | -0.878 | -8.358 | -12.0518 | -0.9523 | -16.8429 | -21.0427 | -26.9578 | -6.804 | -1.218 | -57.9641 | 0.9422 | -7.529 | -0.8348 | -57.3104 | -0.1418 | autophagy induction (U2OS [2]; [11]): -2.903%; autophagy induction (U2OS [2]; [12]): -0.1533%; autophagy induction (U2OS [2]; [13]): -57.4385%; autophagy induction (U2OS [2]; [14]): 1.624%; autophagy induction (TERT-RPE1; [15]): 5.631% and 0.2084%; autophagy induction (TERT-RPE1; [16]): 6.073% and -4.011%; autophagy induction (TERT-RPE1; [17]): 3.7656% and -2.603%; autophagy induction (TERT-RPE1; [18]): -3.104% and -1.391%; autophagy induction (TERT-RPE1; [19]): 5.905% and 3.931%; autophagy induction (TERT-RPE1; [20]): 4.872% and 1.792%; autophagy induction (TERT-RPE1; [21]): 4.017% and -0.1457%; autophagy induction (TERT-RPE1; [22]): -2.448% and 5.167%; autophagy induction (TERT-RPE1; [23]): -0.5838% and 12.3967%; autophagy induction (TERT-RPE1; [24]): -3.853% and 16.5093%
CN1CCCC(n2nc(Cc3ccc(Cl)cc3)c3ccccc3c2=O)CC1.Cl (stereo not given) [AZELASTINE HYDROCHLORIDE] | 28.6217 | 20.8368 | 11.7893 | 4.08 | -10.9736 | -5.743 | -1.742 | -7.358 | 1.941 | 10.8687 | 9.578 | 17.8748 | -1.752 | -3.995 | 606.483 | -3.291 | -6.53 | -3.506 | -60.9405 | -3.3303 | autophagy induction (U2OS [2]; [11]): -10.1026%; autophagy induction (U2OS [2]; [12]): -0.8464%; autophagy induction (U2OS [2]; [13]): -60.027%; autophagy induction (U2OS [2]; [14]): -3.2037%; autophagy induction (TERT-RPE1; [15]): -4.87% and -1.0131%; autophagy induction (TERT-RPE1; [16]): -4.869% and -0.0662%; autophagy induction (TERT-RPE1; [17]): -3.53% and 2.514%; autophagy induction (TERT-RPE1; [18]): -2.083% and 5.845%; autophagy induction (TERT-RPE1; [19]): 2.2259% and 11.1438%; autophagy induction (TERT-RPE1; [20]): 1.534% and 9.267%; autophagy induction (TERT-RPE1; [21]): 3.816% and 8.147%; autophagy induction (TERT-RPE1; [23]): 7.066% and 3.619%; autophagy induction (TERT-RPE1; [24]): 11.8407% and 4.087%; autophagy induction (TERT-RPE1; [25]): 14.8577% and 6.608%; autophagy induction (TERT-RPE1; [26]): 14.3498% and 13.0687%
